Measurements from US20080274892A1, “Novel Haloalkylsulfonanilide Derivative, Herbicide, and Method of Use Thereof” (priority 2005, published 2008).

How the values were obtained:
bulrush [1] = experiment: Test Example 1: herbicidal efficacy on rice paddy weeds pre-emergence; assay type: in vivo, Scirpus juncoides; conditions: 21 days
false pimpernel [2] = experiment: as above; assay type: in vivo, Lindernia pyxidaria; conditions: 21 days
barnyard glass = experiment: Test Example 2: herbicidal efficacy on rice paddy weeds post-emergence; assay type: in vivo, Echinochloa crus-galli; conditions: post-emergence, one leaf stage, 21 days after treatment
Method in brief: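 Plastic pots of 75 cm^2 were filled with clay loam soil and sown with barnyard glass and bulrush seeds, then topped with 75 cm^3 soil containing false pimpernel seeds. The pots were flooded to 5 cm water depth and held in a hot house. Twenty-one days after treatment, herbicidal efficacy was graded against an untreated control.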

bulrush [3] = experiment: as above; assay type: in vivo, Scirpus juncoides; conditions: post-emergence, one leaf stage, 21 days after treatment
false pimpernel [4] = experiment: as above; assay type: in vivo, Lindernia pyxidaria; conditions: post-emergence, one leaf stage, 21 days after treatment
[5] = system: paddy rice plant (cultivar: Nihonbare); experiment: Test Example 3: phytotoxicity test for transplanted paddy rice plant; assay type: in vivo; conditions: transplanted rice, 21 days after treatment
Method in brief: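 Clay loam soil was placed in a 75 cm^2 plastic pot and flooded to a water depth of 5 cm. Two Nihonbare paddy rice plants at the two-leaf stage were transplanted 1 cm deep and grown in a hot house. After treatment, pots stayed in the hot house for 21 days, and phytotoxicity was then graded against an untreated control.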

bulrush [6] = experiment: Test Example 4: low dosage test for rice paddy weeds; assay type: in vivo, Scirpus juncoides; conditions: 300 g/ha as an active ingredient; plants treated at the one leaf stage; 21 days after treatment; vs untreated control
Method in brief: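 Bulrush sown in clay loam pots, flooded to 5 cm water in a hot house, treated at the one-leaf stage with formulated compound at 300 g/ha. Efficacy scored 0–4 against untreated control 21 days after treatment (4 = 90–100%, 0 = 0% inhibition).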

[7] = system: transplanted paddy rice plant and Bulrush; experiment: Test Example 5: selectivity between transplanted paddy rice plant and weeds; assay type: in vivo; conditions: (highest dosage with no phytotoxicity to paddy rice)/(lowest dosage with effective level 4 on Bulrush); rice 3000-100 g/ha, Bulrush 300-10 g/ha; 21 days
Method in brief: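 Transplanted paddy rice was treated at 3000, 1000, 300 and 100 g/ha active ingredient for phytotoxicity, and post-emergence bulrush at 300, 100, 30 and 10 g/ha. Plants were kept in a hothouse for 21 days. Growth inhibition versus untreated control was scored 0–4 (0%, 1–39%, 40–69%, 70–89%, 90–100%).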

[8] = dosage 1000 g/ha, treated 5 days after transplantation

SMILES | Bulrush pre (herbicidal efficacy grade) (bulrush [1]; dosage 1000 g/ha) | False pimpernel pre (herbicidal efficacy grade) (false pimpernel [2]; dosage 1000 g/ha) | Burnyard grass post (herbicidal efficacy grade) (barnyard glass; dosage 1000 g/ha) | Bulrush post (herbicidal efficacy grade) (bulrush [3]; dosage 1000 g/ha) | False pimpernel post (herbicidal efficacy grade) (false pimpernel [4]; dosage 1000 g/ha) | Phytotoxicity to paddy rice [5, 8] | Herbicide effect to Bulrush (bulrush [6]) | Selective Index [7] | Bulrush pre (herbicidal efficacy grade) (bulrush [1]; dosage 300 g/ha) | False pimpernel pre (herbicidal efficacy grade) (false pimpernel [2]; dosage 300 g/ha) | Burnyard grass post (herbicidal efficacy grade) (barnyard glass; dosage 300 g/ha) | Bulrush post (herbicidal efficacy grade) (bulrush [3]; dosage 300 g/ha) | False pimpernel post (herbicidal efficacy grade) (false pimpernel [4]; dosage 300 g/ha) | Phytotoxicity to paddy rice ([5]; dosage 300 g/ha)
CCC1(C(C)C)CN(Cc2ccccc2NS(=O)(=O)C(F)(F)F)C(=O)O1 (centres unmarked) [1-131] | 4 (90%-100% of herbicidal efficacy or phytotoxicity) | 4 (90%-100% of herbicidal efficacy or phytotoxicity) | 4 (90%-100% of herbicidal efficacy or phytotoxicity) | 4 (90%-100% of herbicidal efficacy or phytotoxicity) | 4 (90%-100% of herbicidal efficacy or phytotoxicity) | 2 (40%-69% of herbicidal efficacy or phytotoxicity) | 4 (90%-100% of herbicidal efficacy or phytotoxicity) | 10 | – | – | – | – | – | –
CC1(C2CC2)CN(Cc2ccccc2NS(=O)(=O)C(F)(F)F)C(=O)O1 (centres unmarked) [1-71] | 4 (90%-100% of herbicidal efficacy or phytotoxicity) | 4 (90%-100% of herbicidal efficacy or phytotoxicity) | 4 (90%-100% of herbicidal efficacy or phytotoxicity) | 4 (90%-100% of herbicidal efficacy or phytotoxicity) | 4 (90%-100% of herbicidal efficacy or phytotoxicity) | 1 (1%-39% of herbicidal efficacy or phytotoxicity) | 4 (90%-100% of herbicidal efficacy or phytotoxicity) | 10 | – | – | – | – | – | –
CC(C)COC(=O)N(c1ccccc1CN1CC(C)(C)OC1=S)S(=O)(=O)C(F)(F)F [1-50] | 4 (90%-100% of herbicidal efficacy or phytotoxicity) | 4 (90%-100% of herbicidal efficacy or phytotoxicity) | 4 (90%-100% of herbicidal efficacy or phytotoxicity) | 4 (90%-100% of herbicidal efficacy or phytotoxicity) | 4 (90%-100% of herbicidal efficacy or phytotoxicity) | 2 (40%-69% of herbicidal efficacy or phytotoxicity) | 4 (90%-100% of herbicidal efficacy or phytotoxicity) | 10 | – | – | – | – | – | –
CCOC(=O)N(c1ccccc1CN1CC(C)(C(C)C)OC1=O)S(=O)(=O)C(F)(F)F (racemic) [1-115] | 4 (90%-100% of herbicidal efficacy or phytotoxicity) | 4 (90%-100% of herbicidal efficacy or phytotoxicity) | 4 (90%-100% of herbicidal efficacy or phytotoxicity) | 4 (90%-100% of herbicidal efficacy or phytotoxicity) | 4 (90%-100% of herbicidal efficacy or phytotoxicity) | 3 (70%-89% of herbicidal efficacy or phytotoxicity) | 4 (90%-100% of herbicidal efficacy or phytotoxicity) | 10 | – | – | – | – | – | –
CCC1OC(=O)N(Cc2ccccc2NS(=O)(=O)C(F)(F)F)C1=O (centres unmarked) [1-192] | – | – | – | – | – | – | 4 (90%-100% of herbicidal efficacy or phytotoxicity) | 10 | 4 (90%-100% of herbicidal efficacy or phytotoxicity) | 4 (90%-100% of herbicidal efficacy or phytotoxicity) | 0 (0% of herbicidal efficacy or phytotoxicity) | 4 (90%-100% of herbicidal efficacy or phytotoxicity) | 0 (0% of herbicidal efficacy or phytotoxicity) | 1 (1%-39% of herbicidal efficacy or phytotoxicity)
COCCOC(=O)N(c1ccccc1CN1CC(C)(C2CC2)OC1=O)S(=O)(=O)C(F)(F)F (racemic) [1-119] | 4 (90%-100% of herbicidal efficacy or phytotoxicity) | 4 (90%-100% of herbicidal efficacy or phytotoxicity) | 4 (90%-100% of herbicidal efficacy or phytotoxicity) | 4 (90%-100% of herbicidal efficacy or phytotoxicity) | 4 (90%-100% of herbicidal efficacy or phytotoxicity) | 1 (1%-39% of herbicidal efficacy or phytotoxicity) | 4 (90%-100% of herbicidal efficacy or phytotoxicity) | 30 | – | – | – | – | – | –
CCOC(=O)N(c1ccccc1CN1CC(CC)(CC)OC1=O)S(=O)(=O)C(F)(F)F [1-97] | 4 (90%-100% of herbicidal efficacy or phytotoxicity) | 4 (90%-100% of herbicidal efficacy or phytotoxicity) | 4 (90%-100% of herbicidal efficacy or phytotoxicity) | 4 (90%-100% of herbicidal efficacy or phytotoxicity) | 4 (90%-100% of herbicidal efficacy or phytotoxicity) | 1 (1%-39% of herbicidal efficacy or phytotoxicity) | 4 (90%-100% of herbicidal efficacy or phytotoxicity) | 30 | – | – | – | – | – | –
CCCOC(=O)N(c1ccccc1CN1CC(C)(CC)OC1=O)S(=O)(=O)C(F)(F)F (centres unmarked) [1-90] | 4 (90%-100% of herbicidal efficacy or phytotoxicity) | 4 (90%-100% of herbicidal efficacy or phytotoxicity) | 4 (90%-100% of herbicidal efficacy or phytotoxicity) | 4 (90%-100% of herbicidal efficacy or phytotoxicity) | 4 (90%-100% of herbicidal efficacy or phytotoxicity) | 3 (70%-89% of herbicidal efficacy or phytotoxicity) | 4 (90%-100% of herbicidal efficacy or phytotoxicity) | 30 | – | – | – | – | – | –
CCC1(CC)CN(Cc2ccccc2N(C(=O)OCCOC)S(=O)(=O)C(F)(F)F)C(=O)O1 [1-134] | 4 (90%-100% of herbicidal efficacy or phytotoxicity) | 4 (90%-100% of herbicidal efficacy or phytotoxicity) | 4 (90%-100% of herbicidal efficacy or phytotoxicity) | 4 (90%-100% of herbicidal efficacy or phytotoxicity) | 4 (90%-100% of herbicidal efficacy or phytotoxicity) | 1 (1%-39% of herbicidal efficacy or phytotoxicity) | 4 (90%-100% of herbicidal efficacy or phytotoxicity) | 10 | – | – | – | – | – | –
CCC1(C)CN(Cc2ccccc2N(C(=O)OC)S(=O)(=O)C(F)(F)F)C(=O)O1 (racemic) [1-108] | 4 (90%-100% of herbicidal efficacy or phytotoxicity) | 4 (90%-100% of herbicidal efficacy or phytotoxicity) | 4 (90%-100% of herbicidal efficacy or phytotoxicity) | 4 (90%-100% of herbicidal efficacy or phytotoxicity) | 4 (90%-100% of herbicidal efficacy or phytotoxicity) | 2 (40%-69% of herbicidal efficacy or phytotoxicity) | 4 (90%-100% of herbicidal efficacy or phytotoxicity) | 30 | – | – | – | – | – | –
